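Five concentrations, 48 hours, 96-well plates. The concentration for full growth arrest is given as TGI.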
Legend:
Test in all cases: NCI anticancer screen, dose series, 48 h
[1] = system: SNB-19 CNS
[2] = system: OVCAR-5 ovarian
[3] = system: MOLT-4 leukemia
[4] = system: HS 578T breast
[5] = system: NCI-H522 lung
[6] = system: KM12 colon
[7] = system: CCRF-CEM leukemia
[8] = system: TK-10 renal
[9] = system: UACC-62 melanoma
[10] = system: NCI/ADR-RES ovarian
[11] = system: M14 melanoma
[12] = system: SN12C renal
[13] = system: U251 CNS
[14] = system: HT29 colon
[15] = system: SF-295 CNS
[16] = system: SF-268 CNS
[17] = system: HL-60(TB) leukemia
[18] = system: BT-549 breast
[19] = system: K-562 leukemia
[20] = system: SK-MEL-28 melanoma
[21] = system: NCI-H460 lung
[22] = system: RXF 393 renal
[23] = system: ACHN renal
[24] = system: CAKI-1 renal
[25] = system: MALME-3M melanoma
[26] = system: UO-31 renal
[27] = system: OVCAR-4 ovarian
[28] = system: MDA-N
[29] = system: OVCAR-3 ovarian
[30] = system: MDA-MB-231 breast
[31] = system: OVCAR-8 ovarian
[32] = system: SK-OV-3 ovarian
[33] = system: IGROV1 ovarian
[34] = system: DU-145 prostate
[35] = system: NCI-H226 lung
[36] = system: SR leukemia
[37] = system: T-47D breast
[38] = system: HOP-62 NSCLC
[39] = system: NCI-H23 lung
[40] = system: PC-3 prostate
[41] = system: 786-0 renal
[42] = system: MCF7 breast
[43] = system: A549 NSCLC
[44] = system: MDA-MB-435
[45] = system: SNB-75 CNS
[46] = system: HCT-15 colon
[47] = system: EKVX NSCLC
[48] = system: LOX IMVI melanoma
[49] = system: UACC-257 melanoma
[50] = system: SK-MEL-5 melanoma
[51] = system: HCT-116 colon
[52] = system: HOP-92 NSCLC
[53] = system: SW-620 colon
[54] = system: RPMI-8226 leukemia
[55] = system: SK-MEL-2 melanoma
[56] = system: COLO 205 colon
[57] = system: SF-539 CNS
[58] = system: A498 renal

## CC1=CC(=O)C(=C(C)C)CC1
[1]
  TGI: > 100 µM
[2]
  TGI: > 100 µM
[3]
  TGI: > 100 µM
[4]
  TGI: > 100 µM
[5]
  TGI: > 100 µM
[6]
  TGI: > 100 µM
[7]
  TGI: > 100 µM
[8]
  TGI: > 100 µM
[9]
  TGI: > 100 µM
[10]
  TGI: > 100 µM
[11]
  TGI: > 100 µM
[12]
  TGI: > 100 µM
[13]
  TGI: > 100 µM
[14]
  TGI: > 100 µM
[15]
  TGI: > 100 µM
[16]
  TGI: > 100 µM
[17]
  TGI: > 100 µM
[18]
  TGI: > 100 µM
[19]
  TGI: > 100 µM
[20]
  TGI: > 100 µM
[21]
  TGI: > 100 µM
[22]
  TGI: > 100 µM
[23]
  TGI: > 100 µM
[24]
  TGI: > 100 µM
[25]
  TGI: > 100 µM
[26]
  TGI: > 100 µM
[27]
  TGI: > 100 µM
[28]
  TGI: > 100 µM
[29]
  TGI: > 100 µM
[30]
  TGI: > 100 µM
[31]
  TGI: > 100 µM
[32]
  TGI: > 100 µM
[33]
  TGI: > 100 µM
[34]
  TGI: > 100 µM
[35]
  TGI: > 100 µM
[36]
  TGI: > 100 µM
[37]
  TGI: > 100 µM
[38]
  TGI: > 100 µM
[39]
  TGI: > 100 µM
[40]
  TGI: > 100 µM
[41]
  TGI: > 100 µM
[42]
  TGI: > 100 µM
[43]
  TGI: > 100 µM
[44]
  TGI: > 100 µM
[45]
  TGI: > 100 µM
[46]
  TGI: > 100 µM
[47]
  TGI: > 100 µM
[48]
  TGI: > 100 µM
[49]
  TGI: > 100 µM
[50]
  TGI: > 100 µM
[51]
  TGI: > 100 µM

## CC(=O)N1N=C(c2cc(C)ccc2O)CC1c1cccc(Cl)c1 (configuration not stated)
[1]
  TGI: 28.5 µM
[2]
  TGI: > 100 µM
[3]
  TGI: 28 µM
[4]
  TGI: 43 µM
[5]
  TGI: 14.3 µM
[6]
  TGI: > 100 µM
[7]
  TGI: 57.8 µM
[52]
  TGI: 37 µM
[8]
  TGI: 68.7 µM
[9]
  TGI: 35.2 µM
[10]
  TGI: 61.2 µM
[11]
  TGI: 84 µM
[12]
  TGI: 77 µM
[13]
  TGI: 39.7 µM
[14]
  TGI: 40.2 µM
[15]
  TGI: 65 µM
[16]
  TGI: 50.5 µM
[17]
  TGI: 42.4 µM
[18]
  TGI: > 100 µM
[19]
  TGI: > 100 µM
[21]
  TGI: 61.9 µM
[22]
  TGI: 34.2 µM
[23]
  TGI: 47.8 µM
[24]
  TGI: > 100 µM
[25]
  TGI: 62.1 µM
[26]
  TGI: 50.3 µM
[53]
  TGI: 93.5 µM
[27]
  TGI: 54.8 µM
[28]
  TGI: 5.44 µM
[54]
  TGI: 26.5 µM
[29]
  TGI: > 100 µM
[55]
  TGI: 28.8 µM
[30]
  TGI: 82.4 µM
[31]
  TGI: > 100 µM
[32]
  TGI: 54.9 µM
[33]
  TGI: 8.45 µM
[56]
  TGI: 21.9 µM
[34]
  TGI: > 100 µM
[35]
  TGI: 58.8 µM
[36]
  TGI: 9.42 µM
[37]
  TGI: > 100 µM
[38]
  TGI: > 100 µM
[39]
  TGI: 68.1 µM
[40]
  TGI: 66.1 µM
[57]
  TGI: 69.8 µM
[41]
  TGI: > 100 µM
[42]
  TGI: 34.6 µM
[43]
  TGI: 47.4 µM
[44]
  TGI: 4.05 µM
[46]
  TGI: 5.51 µM
[47]
  TGI: 91.8 µM
[48]
  TGI: 39.6 µM
[49]
  TGI: 41.6 µM
[50]
  TGI: 27.8 µM
[51]
  TGI: > 100 µM

## O=c1n(N=S(=O)(c2ccccc2)c2ccccc2)c(=O)n2n1C1C=CC2CC1
[1]
  TGI: > 100 µM
[2]
  TGI: > 100 µM
[3]
  TGI: > 100 µM
[4]
  TGI: > 100 µM
[6]
  TGI: > 100 µM
[7]
  TGI: > 100 µM
[52]
  TGI: > 100 µM
[8]
  TGI: > 100 µM
[9]
  TGI: > 100 µM
[10]
  TGI: > 100 µM
[11]
  TGI: > 100 µM
[12]
  TGI: > 100 µM
[13]
  TGI: > 100 µM
[14]
  TGI: > 100 µM
[15]
  TGI: > 100 µM
[16]
  TGI: > 100 µM
[17]
  TGI: > 100 µM
[18]
  TGI: > 100 µM
[19]
  TGI: > 100 µM
[20]
  TGI: > 100 µM
[21]
  TGI: > 100 µM
[23]
  TGI: > 100 µM
[24]
  TGI: > 100 µM
[26]
  TGI: > 100 µM
[53]
  TGI: > 100 µM
[28]
  TGI: > 100 µM
[58]
  TGI: > 100 µM
[54]
  TGI: > 100 µM
[29]
  TGI: > 100 µM
[55]
  TGI: > 100 µM
[30]
  TGI: > 100 µM
[31]
  TGI: > 100 µM
[32]
  TGI: > 100 µM
[33]
  TGI: > 100 µM
[56]
  TGI: > 100 µM
[34]
  TGI: > 100 µM
[35]
  TGI: > 100 µM
[36]
  TGI: > 100 µM
[37]
  TGI: > 100 µM
[38]
  TGI: > 100 µM
[39]
  TGI: > 100 µM
[40]
  TGI: > 100 µM
[57]
  TGI: > 100 µM
[41]
  TGI: > 100 µM
[42]
  TGI: > 100 µM
[43]
  TGI: > 100 µM
[44]
  TGI: > 100 µM
[45]
  TGI: > 100 µM
[46]
  TGI: > 100 µM
[47]
  TGI: > 100 µM
[48]
  TGI: > 100 µM
[49]
  TGI: > 100 µM
[50]
  TGI: > 100 µM
[51]
  TGI: > 100 µM

## N#CC(C#N)N=Nc1ccc(-c2nc3ccccc3[nH]2)cc1
[1]
  TGI: > 100 µM
[2]
  TGI: > 100 µM
[3]
  TGI: > 100 µM
[4]
  TGI: > 100 µM
[5]
  TGI: 22.9 µM
[6]
  TGI: > 100 µM
[7]
  TGI: 36.8 µM
[52]
  TGI: 49.6 µM
[8]
  TGI: 73.4 µM
[10]
  TGI: 43.2 µM
[11]
  TGI: 52.3 µM
[12]
  TGI: > 100 µM
[13]
  TGI: > 100 µM
[14]
  TGI: > 100 µM
[15]
  TGI: > 100 µM
[16]
  TGI: 66.4 µM
[17]
  TGI: 1.38 µM
[18]
  TGI: 36.3 µM
[19]
  TGI: > 100 µM
[20]
  TGI: 52 µM
[21]
  TGI: > 100 µM
[22]
  TGI: 34.8 µM
[23]
  TGI: 29 µM
[24]
  TGI: 82.6 µM
[25]
  TGI: 28 µM
[26]
  TGI: 31.1 µM
[53]
  TGI: 46.9 µM
[27]
  TGI: 68.9 µM
[28]
  TGI: 50.6 µM
[58]
  TGI: > 100 µM
[54]
  TGI: > 100 µM
[29]
  TGI: 37.8 µM
[55]
  TGI: 64 µM
[30]
  TGI: 35.5 µM
[31]
  TGI: 47.7 µM
[32]
  TGI: > 100 µM
[33]
  TGI: 37.9 µM
[56]
  TGI: 21.8 µM
[34]
  TGI: 39.6 µM
[35]
  TGI: > 100 µM
[36]
  TGI: > 100 µM
[37]
  TGI: 55.7 µM
[38]
  TGI: > 100 µM
[39]
  TGI: 66 µM
[40]
  TGI: 50.4 µM
[57]
  TGI: 35.5 µM
[41]
  TGI: 70.9 µM
[42]
  TGI: 37.6 µM
[43]
  TGI: > 100 µM
[44]
  TGI: 40 µM
[45]
  TGI: > 100 µM
[46]
  TGI: 58.7 µM
[47]
  TGI: > 100 µM
[48]
  TGI: 32.7 µM
[49]
  TGI: 40.9 µM
[50]
  TGI: > 100 µM
[51]
  TGI: 43.2 µM

## CCOc1cc(C(c2c(O)c3ccccc3oc2=O)c2c(O)c3ccccc3oc2=O)ccc1OC
[1]
  TGI: 61.8 µM
[2]
  TGI: 40.1 µM
[3]
  TGI: 98.9 µM
[4]
  TGI: 77.5 µM
[5]
  TGI: 36.3 µM
[6]
  TGI: 36.5 µM
[7]
  TGI: > 100 µM
[52]
  TGI: 32.8 µM
[8]
  TGI: 32.1 µM
[9]
  TGI: 33.2 µM
[10]
  TGI: 73.3 µM
[11]
  TGI: 38.9 µM
[12]
  TGI: 40.3 µM
[13]
  TGI: 29.5 µM
[14]
  TGI: 65.9 µM
[15]
  TGI: 41.7 µM
[16]
  TGI: 38.8 µM
[17]
  TGI: 52.4 µM
[18]
  TGI: 41.4 µM
[19]
  TGI: > 100 µM
[20]
  TGI: 72.2 µM
[23]
  TGI: 31.9 µM
[24]
  TGI: 30.5 µM
[25]
  TGI: 34.8 µM
[26]
  TGI: 45.8 µM
[53]
  TGI: > 100 µM
[27]
  TGI: 34.1 µM
[28]
  TGI: 36.6 µM
[58]
  TGI: 38.9 µM
[54]
  TGI: 89.9 µM
[29]
  TGI: 33.3 µM
[55]
  TGI: 42.2 µM
[30]
  TGI: 31.9 µM
[31]
  TGI: 42.4 µM
[32]
  TGI: 32.9 µM
[33]
  TGI: 32.7 µM
[56]
  TGI: 36.4 µM
[34]
  TGI: 37.6 µM
[35]
  TGI: 59.1 µM
[36]
  TGI: > 100 µM
[37]
  TGI: 38.3 µM
[38]
  TGI: 39.9 µM
[39]
  TGI: 52.6 µM
[40]
  TGI: 33.3 µM
[57]
  TGI: 42.6 µM
[41]
  TGI: 40.1 µM
[42]
  TGI: 43.7 µM
[43]
  TGI: > 100 µM
[44]
  TGI: 32 µM
[46]
  TGI: 47.6 µM
[47]
  TGI: 44.3 µM
[48]
  TGI: 45.8 µM
[49]
  TGI: 34.6 µM
[50]
  TGI: 44.6 µM
[51]
  TGI: 37.9 µM
